This note sets out measurements from ChEMBL document CHEMBL1221346, “Synthesis and biological activity of N-substituted aminocarbonyl-1,3-dioxolanes as VLA-4 antagonists” (Bioorg Med Chem Lett, 2010).

Peptide text beside a SMILES is read from it. * marks the point of attachment. Tos = Cc1ccc(S(=O)(=O)*)cc1

One data set deals with T1, Integrin alpha-4 (Homo sapiens, UniProt P13612).
T1 sequence (P13612 whole entry): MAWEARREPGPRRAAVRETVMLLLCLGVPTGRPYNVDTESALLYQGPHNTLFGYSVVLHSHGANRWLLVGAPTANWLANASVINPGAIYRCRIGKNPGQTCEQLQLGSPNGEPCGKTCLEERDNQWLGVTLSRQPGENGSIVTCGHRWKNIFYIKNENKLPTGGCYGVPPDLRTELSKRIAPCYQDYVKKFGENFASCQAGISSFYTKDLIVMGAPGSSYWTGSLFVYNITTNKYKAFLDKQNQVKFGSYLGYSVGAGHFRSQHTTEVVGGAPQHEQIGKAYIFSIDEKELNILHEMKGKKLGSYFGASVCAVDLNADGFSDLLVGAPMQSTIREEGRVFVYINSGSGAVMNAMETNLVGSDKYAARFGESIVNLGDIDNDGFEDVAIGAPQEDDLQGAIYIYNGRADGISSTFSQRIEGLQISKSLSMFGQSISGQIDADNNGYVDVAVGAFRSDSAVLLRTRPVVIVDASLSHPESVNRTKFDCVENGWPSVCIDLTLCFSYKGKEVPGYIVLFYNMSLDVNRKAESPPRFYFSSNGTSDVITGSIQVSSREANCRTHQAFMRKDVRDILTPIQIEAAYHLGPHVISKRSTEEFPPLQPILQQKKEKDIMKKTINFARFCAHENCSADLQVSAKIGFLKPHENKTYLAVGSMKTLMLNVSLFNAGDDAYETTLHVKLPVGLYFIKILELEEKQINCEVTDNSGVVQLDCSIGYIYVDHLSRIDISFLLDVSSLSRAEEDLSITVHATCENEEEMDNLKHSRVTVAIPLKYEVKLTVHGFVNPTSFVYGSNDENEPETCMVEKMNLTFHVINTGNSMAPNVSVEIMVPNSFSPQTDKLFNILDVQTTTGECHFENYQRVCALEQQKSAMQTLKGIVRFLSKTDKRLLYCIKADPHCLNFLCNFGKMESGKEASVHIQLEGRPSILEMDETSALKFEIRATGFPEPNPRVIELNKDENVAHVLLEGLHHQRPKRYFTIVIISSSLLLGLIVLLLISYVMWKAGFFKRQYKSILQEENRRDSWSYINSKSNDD
As to the kind of experiment: Displacement of VCAM1 from VLA4 receptor in human U937 cells. The data set is classed as cell-based, U-937.
Conditions: not given
The term IC50 denotes the concentration needed to halve the response being measured. Lower therefore signals greater potency in that assay. The molecule `COc1ccccc1C(=O)Nc1ccc(C[C@H](NC(=O)[C@@H]2OCO[C@H]2C(=O)Nc2ccccc2-c2ccccc2)C(=O)O)cc1` displayed an IC50 of 6.3 µM. Still for that read-out and setting: then `CN(C)C(=O)[C@@H]1OCO[C@H]1C(=O)N[C@@H](Cc1ccc(OCc2c(Cl)cccc2Cl)cc1)C(=O)O`, with 1.5 µM; and `CC(C)(C)c1cc(NC(=O)[C@@H]2OCO[C@H]2C(=O)N[C@@H](Cc2ccc(OCc3c(Cl)cccc3Cl)cc2)C(=O)O)n(Cc2ccccc2)n1`, with 1 µM; and `CC(C)NC(=O)[C@@H]1OCO[C@H]1C(=O)N[C@@H](Cc1ccc(OCc2c(Cl)cccc2Cl)cc1)C(=O)O`, with 6.6 µM.

Regarding `O=C(Nc1ccc(C[C@H](NC(=O)[C@@H]2OCO[C@H]2C(=O)Nc2ccccc2-c2ccccc2)C(=O)O)cc1)c1cccnc1`, the IC50 is 9.5 µM. For the molecule `O=C(O)[C@H](Cc1ccc(OCc2c(Cl)cccc2Cl)cc1)NC(=O)[C@@H]1OCO[C@H]1C(=O)Nc1ccccc1F`, the IC50 was found to be 0.6 µM. Against the preceding molecule, the IC50 is about 16-fold lower. Still for that read-out and setting: then `O=C(O)[C@H](Cc1ccc(OCc2c(Cl)cccc2Cl)cc1)NC(=O)[C@@H]1OCO[C@H]1C(=O)NC1CCCCC1`, with 1.4 µM; and `O=C(O)[C@H](Cc1ccc(OCc2c(Cl)cccc2Cl)cc1)NC(=O)[C@@H]1OCO[C@H]1C(=O)Nc1ccccc1Cl`, with 0.7 µM; and `O=C(O)[C@H](Cc1ccc(OCc2c(Cl)cccc2Cl)cc1)NC(=O)[C@@H]1OCO[C@H]1C(=O)Nc1c(F)cccc1F`, with 0.5 µM. On the same count and under the same terms, for `Cc1nnc(NC(=O)[C@@H]2OCO[C@H]2C(=O)N[C@@H](Cc2ccc(OCc3c(Cl)cccc3Cl)cc2)C(=O)O)s1` the value was 1.5 µM. Same read-out and setting: then `O=C(O)[C@H](Cc1ccc(OCc2c(Cl)cccc2Cl)cc1)NC(=O)[C@@H]1OCO[C@H]1C(=O)Nc1ccccc1`, with 1.5 µM; and `O=C(O)[C@H](Cc1ccc(OCc2c(Cl)cccc2Cl)cc1)NC(=O)[C@@H]1OCO[C@H]1C(=O)Nc1nc2ccccc2s1`, with 0.6 µM. The molecule `Cc1ccc(-n2nc(C(C)(C)C)cc2NC(=O)[C@@H]2OCO[C@H]2C(=O)N[C@@H](Cc2ccc(OCc3c(Cl)cccc3Cl)cc2)C(=O)O)cc1` had an IC50 of 2.6 µM. The same measure, in the same setting: then `CCCCCCCNC(=O)[C@@H]1OCO[C@H]1C(=O)N[C@@H](Cc1ccc(OCc2c(Cl)cccc2Cl)cc1)C(=O)O`, with 4.4 µM; and `COc1ccccc1NC(=O)[C@@H]1OCO[C@H]1C(=O)N[C@@H](Cc1ccc(OCc2c(Cl)cccc2Cl)cc1)C(=O)O`, with 0.6 µM. The same measure, in the same setting: then `O=C(O)[C@H](Cc1ccc(OCc2c(Cl)cccc2Cl)cc1)NC(=O)[C@@H]1OCO[C@H]1C(=O)Nc1ccc(Cl)cc1`, with 2.8 µM; and `O=C(Nc1ccc(C[C@H](NC(=O)[C@@H]2OCO[C@H]2C(=O)Nc2ccccc2-c2ccccc2)C(=O)O)cc1)c1ccncc1`, with 2.7 µM; and `O=C(O)[C@H](Cc1ccc(OCc2c(Cl)cccc2Cl)cc1)NC(=O)[C@@H]1OCO[C@H]1C(=O)NCCc1c[nH]c2ccccc12`, with 0.6 µM. Molecule `O=C(O)[C@H](Cc1ccc(OCc2c(Cl)cccc2Cl)cc1)NC(=O)[C@@H]1OCO[C@H]1C(=O)NCc1ccc2c(c1)OCO2` yielded an IC50 of 3 µM. On the same count and under the same terms, for `O=C(O)[C@H](Cc1ccc(OCc2ccccc2Cl)cc1)NC(=O)[C@@H]1OCO[C@H]1C(=O)Nc1ccccc1-c1ccccc1` the value was 8.7 µM.

Regarding `O=C(Nc1ccc(C[C@H](NC(=O)[C@@H]2OCO[C@H]2C(=O)Nc2ccccc2-c2ccccc2)C(=O)O)cc1)c1ccccn1`, the 50% inhibitory concentration (IC50) was found to be 8.3 µM. `O=C(Nc1ccc(C[C@H](NC(=O)[C@@H]2OCO[C@H]2C(=O)Nc2ccccc2-c2ccccc2)C(=O)O)cc1)c1c(Cl)cccc1Cl` had an IC50 of 0.1 µM.

Molecule `O=C(O)[C@H](Cc1ccc(OCc2c(Cl)cccc2Cl)cc1)NC(=O)[C@@H]1OCO[C@H]1C(=O)Nc1c(Cl)cccc1Cl` displayed a concentration for half-maximal inhibition (IC50) of 0.7 µM. Still for that read-out and setting: then `CC(C)CCNC(=O)[C@@H]1OCO[C@H]1C(=O)N[C@@H](Cc1ccc(OCc2c(Cl)cccc2Cl)cc1)C(=O)O`, with 1.1 µM; and `O=C(O)[C@H](Cc1ccc(OCc2c(Cl)cccc2Cl)cc1)NC(=O)[C@@H]1OCO[C@H]1C(=O)NCc1cccs1`, with 0.7 µM. Still for that read-out and setting: then `O=C(O)[C@H](Cc1ccc(OCc2c(Cl)cccc2Cl)cc1)NC(=O)[C@@H]1OCO[C@H]1C(=O)Nc1ccccc1C(F)(F)F`, with 0.9 µM; and `O=C(O)[C@H](Cc1ccc(OCc2c(Cl)cccc2Cl)cc1)NC(=O)[C@@H]1OCO[C@H]1C(=O)N1CCOCC1`, with 3.4 µM. On the same count and under the same terms, then `O=C(O)[C@H](Cc1ccc(OCc2c(Cl)cccc2Cl)cc1)NC(=O)[C@@H]1OCO[C@H]1C(=O)Nc1ccccc1-c1ccccc1`, with 0.5 µM; and `O=C(Nc1ccc(C[C@H](NC(=O)[C@@H]2OCO[C@H]2C(=O)Nc2ccccc2-c2ccccc2)C(=O)O)cc1)c1ccccc1`, with 9 µM. For the molecule `O=C(O)[C@H](Cc1ccc(OCc2c(Cl)cccc2Cl)cc1)NC(=O)[C@@H]1OCO[C@H]1C(=O)Nc1c(Cl)cncc1Cl`, the IC50 turned out to be 0.4 µM. On the same count and under the same terms, for `CNC(=O)[C@@H]1OCO[C@H]1C(=O)N[C@@H](Cc1ccc(OCc2c(Cl)cccc2Cl)cc1)C(=O)O` the value was 1.2 µM. On the same count and under the same terms, then `O=C(O)[C@H](Cc1ccc(OCc2c(Cl)cccc2Cl)cc1)NC(=O)[C@@H]1OCO[C@H]1C(=O)NC1CC1`, with 0.3 µM; and `O=C(O)[C@H](Cc1ccc(OCc2c(F)cccc2F)cc1)NC(=O)[C@@H]1OCO[C@H]1C(=O)Nc1ccccc1-c1ccccc1`, with 7.9 µM. On the same count and under the same terms, for `O=C(Nc1ccc(C[C@H](NC(=O)[C@@H]2OCO[C@H]2C(=O)Nc2ccccc2-c2ccccc2)C(=O)O)cc1)c1cc(Cl)nc(Cl)c1` the value was 6.3 µM; for `CCNC(=O)[C@@H]1OCO[C@H]1C(=O)N[C@@H](Cc1ccc(OCc2c(Cl)cccc2Cl)cc1)C(=O)O`, 2.1 µM. `CCCCNC(=O)[C@@H]1OCO[C@H]1C(=O)N[C@@H](Cc1ccc(OCc2c(Cl)cccc2Cl)cc1)C(=O)O` registered a half-inhibitory concentration (IC50) of 1.5 µM.

`O=C(O)[C@H](Cc1ccc(OCc2c(Cl)cccc2Cl)cc1)NC(=O)[C@@H]1OCO[C@H]1C(=O)Nc1nccs1` displayed an IC50 of 0.2 µM.

Molecule `CC(C)(C)NC(=O)[C@@H]1OCO[C@H]1C(=O)N[C@@H](Cc1ccc(OCc2c(Cl)cccc2Cl)cc1)C(=O)O` had an IC50 of 1.2 µM.

Tested on in another data set: not listed separately
Briefly: Oral bioavailability in rat. The data set is classed as ADME, organism-based. The following applies: in vivo.
Broadly, the bioavailability is dose-corrected exposure relative to a reference, in per cent. Lower therefore signals poor availability. Regarding `Cc1ccc(S(=O)(=O)N2CCC[C@H]2C(=O)N[C@@H](Cc2ccccc2)C(=O)O)cc1` (Tos-Pro-Phe-OH), the bioavailability worked out at 10%.

Tested on in another data set: not listed separately
Briefly: Metabolic stability in human liver microsome at 8 uM after 1 hr. In kind it is ADME. The following applies: liver microsomes, read-out: Stability. On the technique in general: Liver microsomes are vesicles of endoplasmic reticulum, rich in cytochrome P450 enzymes.
On to `O=C(O)[C@H](Cc1ccc(OCc2c(Cl)cccc2Cl)cc1)NC(=O)[C@@H]1OCO[C@H]1C(=O)NC1CC1`, for which the remaining at 1 h, 8 µM came out at 72%. Still for that read-out and setting: for `O=C(O)[C@H](Cc1ccc(OCc2c(Cl)cccc2Cl)cc1)NC(=O)[C@@H]1OCO[C@H]1C(=O)Nc1nccs1` the value was 52%.
